Measured values reported in US20250188404A1, “CULTURE CAPSULE AND METHOD FOR RES[…] IN VIABLE BUT NON-CULTURABLE (VBNC) STATE” (Innovation Center of Yangtze River Delta, ZJU, priority 2023, published 2025).

Tested on: Salmonella ATCC14028 in a special dormant state
Assay: Resuscitation ("awakening") of VBNC Salmonella by nutrient added alone, pour-plate colony growth
Format: cell-based
Conditions: nutrient not encapsulated, more than 3 g egg yolk lecithin or more than 0.22 g cholesterol per 20 mL bacterial solution, static incubation 1 d to 7 d
Protocol: In the examples of the present disclosure, induced preparation of Salmonella ATCC14028 in a special dormant state: single colonies of Salmonella ATCC14028 are inoculated in a liquid medium and cultivated at 37° C. and 180 rpm to a late logarithmic stage; a resulting bacterial solution is centrifuged at 6,000 rpm for 10 min, and a resulting supernatant is discarded; a resulting precipitate is washed twice with phosphate buffered saline (PBS) and then re-dissolved with PBS for later use, and a resulting bacterial solution is serially diluted to a concentration of 1*10^8 CFU/mL; 18 mL of PBS is added to a 50 mL centrifuge tube, the centrifuge tube is heated in a 60±2° C. water bath, and after the temperature in the centrifuge tube reaches 60±2° C., 2 mL of a 1*10^8 CFU/mL bacterial solution is added to the centrifuge tube; a diluted bacterial solution is magnetically stirred and heated for 20 min, and then immediately taken out and placed in ice for later use; a cooled bacterial solution is centrifuged at 7,000 rpm for 10 min, a resulting supernatant is discarded, and PBS is added to 20 mL for re-dissolution; and the treated bacterial solution is subjected to staining with a Live/Dead BacLight kit, and then the number of viable bacteria in the treated bacterial solution is detected by flow cytometry. […]

CC(C)CCC[C@@H](C)[C@H]1CC[C@H]2[C@@H]3CC=C4C[C@@H](O)CC[C@]4(C)[C@H]3CC[C@]12C [cholesterol]
"awakening" of bacteria in a special dormant state (growth of colonies): can “awaken” bacteria in a special dormant state
